Test results published in the NIST ThermoML archive (doi:10.1021/je100734t).

Experiment: xn = mol fraction of the nth substance listed
Details: 101 kPa, Liquid; for speed of sound: Pulse-echo method

CCCCCCCCCCO [decan-1-ol] + Cc1ccc(C)cc1
Details	mass density, 293.15 K [kg/m3]	mass density, 303.15 K [kg/m3]	mass density, 313.15 K [kg/m3]	speed of sound, 293.15 K [m/s]	speed of sound, 303.15 K [m/s]	speed of sound, 313.15 K [m/s]
x2 = 0	829.98	823.1	816.27	1396	1362	1329
x2 = 0.0806	831.76	824.74	817.76	1391	1356	1322
x2 = 0.1731	833.82	826.66	819.54	1385	1349	1314
x2 = 0.2506	835.6	828.33	821.08	1378	1342	1307
x2 = 0.3197	837.25	829.88	822.5	1373	1336	1300
x2 = 0.3693	838.49	831.04	823.57	1368	1331	1295
x2 = 0.4336	840.17	832.6	825.02	1362	1325	1289
x2 = 0.4929	841.79	834.12	826.43	1357	1320	1283
x2 = 0.5771	844.26	836.42	828.58	1350	1312	1275
x2 = 0.662	846.98	838.96	830.98	1344	1305	1267
x2 = 0.7265	849.2	841.06	832.94	1340	1300	1262
x2 = 0.7763	851.04	842.8	834.58	1337	1297	1258
x2 = 0.8293	853.13	844.77	836.44	1335	1294	1255
x2 = 0.8891	855.65	847.2	838.71	1333	1292	1252
x2 = 0.9369	857.84	849.27	840.68	1332	1290	1250

CCCCCCCCCO [nonan-1-ol] + Cc1ccc(C)cc1
Details	mass density, 293.15 K [kg/m3]	mass density, 303.15 K [kg/m3]	mass density, 313.15 K [kg/m3]	speed of sound, 293.15 K [m/s]	speed of sound, 303.15 K [m/s]	speed of sound, 313.15 K [m/s]
x2 = 0	827.7	820.82	813.88	1381	1347	1314
x2 = 0.0611	829.31	822.32	815.27	1378	1343	1310
x2 = 0.1108	830.62	823.55	816.41	1375	1340	1306
x2 = 0.1652	832.08	824.91	817.67	1372	1336	1301
x2 = 0.226	833.72	826.44	819.1	1368	1331	1296
x2 = 0.2932	835.56	828.16	820.7	1363	1326	1290
x2 = 0.3651	837.59	830.07	822.47	1357	1320	1284
x2 = 0.4248	839.34	831.7	824	1353	1315	1278
x2 = 0.5023	841.69	833.91	826.07	1347	1308	1272
x2 = 0.558	843.46	835.58	827.63	1343	1304	1267
x2 = 0.6359	846.06	838.04	829.95	1338	1299	1261
x2 = 0.7123	848.77	840.61	832.39	1334	1294	1256
x2 = 0.7744	851.12	842.84	834.5	1332	1291	1252
x2 = 0.8514	854.23	845.81	837.33	1330	1289	1249
x2 = 0.9286	857.59	849.02	840.41	1329	1288	1248
